Twelve molecules from the kinase profiling compilation of Christmann-Franck et al. (2016) can be followed below.

Holding throughout (assay): KINOMEscan competition binding
What all share (conditions): compound 10.0 µM

Assay [1] relates to ABL1 (human), P00519 [Y253F].
Assay [2] relates to EGFR (human), P00533 [747-751 del / S ins].
In assay [3] the test system is EGFR (human), P00533 [752-759 del].
Assay [4] concerns EGFR (human), P00533 [T790M/L858R].
The test system of assay [5] is EGFR (human), P00533 [T790M].
The subject of assay [6] is FLT3 (human), P36888 [D835H].
In assay [7] the test system is FLT3 (human), P36888 [R834Q].
The test system of assay [8] is KIT (human), P10721 [L576P].
Assay [9] relates to KIT (human), P10721 [V559D/V654A].
In assay [10] the test system is MET (human), P08581 [Y1235D].
Assay [11] relates to RET (human), P07949 [M918T].
Assay [12] relates to RET (human), P07949 [V804M].
Sequence of RET (human), P07949 [V804M] (P07949 whole entry V804M, looked up): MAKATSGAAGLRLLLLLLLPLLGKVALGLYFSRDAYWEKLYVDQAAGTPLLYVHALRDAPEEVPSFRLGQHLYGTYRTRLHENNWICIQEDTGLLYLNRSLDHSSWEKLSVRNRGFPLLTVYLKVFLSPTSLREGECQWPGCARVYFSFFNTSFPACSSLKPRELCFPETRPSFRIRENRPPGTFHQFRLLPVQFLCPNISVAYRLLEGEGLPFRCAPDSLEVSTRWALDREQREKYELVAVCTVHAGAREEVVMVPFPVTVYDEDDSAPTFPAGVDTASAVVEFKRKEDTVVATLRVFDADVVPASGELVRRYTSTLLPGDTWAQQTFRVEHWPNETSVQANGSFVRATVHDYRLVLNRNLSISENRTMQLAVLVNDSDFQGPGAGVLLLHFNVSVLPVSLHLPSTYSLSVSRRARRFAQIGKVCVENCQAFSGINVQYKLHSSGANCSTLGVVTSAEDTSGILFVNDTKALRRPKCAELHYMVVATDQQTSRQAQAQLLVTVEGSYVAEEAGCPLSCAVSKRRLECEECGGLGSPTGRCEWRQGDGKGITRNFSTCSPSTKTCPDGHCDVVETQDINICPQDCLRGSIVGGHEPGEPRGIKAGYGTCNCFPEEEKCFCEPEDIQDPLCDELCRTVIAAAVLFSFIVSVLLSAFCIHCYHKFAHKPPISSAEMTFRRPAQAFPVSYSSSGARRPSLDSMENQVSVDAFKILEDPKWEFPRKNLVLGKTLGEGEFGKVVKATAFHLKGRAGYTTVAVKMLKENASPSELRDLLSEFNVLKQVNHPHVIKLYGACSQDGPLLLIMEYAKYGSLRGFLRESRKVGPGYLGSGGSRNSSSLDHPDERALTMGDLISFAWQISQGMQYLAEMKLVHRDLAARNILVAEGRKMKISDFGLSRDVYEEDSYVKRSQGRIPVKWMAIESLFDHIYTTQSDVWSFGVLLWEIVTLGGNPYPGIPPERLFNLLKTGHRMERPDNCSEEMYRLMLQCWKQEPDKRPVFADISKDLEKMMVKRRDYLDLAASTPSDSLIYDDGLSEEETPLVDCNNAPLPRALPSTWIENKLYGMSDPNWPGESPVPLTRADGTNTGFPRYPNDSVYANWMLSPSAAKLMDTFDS

Sequence of RET (human), P07949 [M918T] (P07949 whole entry M918T, looked up): as the sequence (P07949 whole entry V804M, looked up) above, with M804V, M918T counted along it
Sequence of KIT (human), P10721 [L576P] (P10721 whole entry L576P, looked up): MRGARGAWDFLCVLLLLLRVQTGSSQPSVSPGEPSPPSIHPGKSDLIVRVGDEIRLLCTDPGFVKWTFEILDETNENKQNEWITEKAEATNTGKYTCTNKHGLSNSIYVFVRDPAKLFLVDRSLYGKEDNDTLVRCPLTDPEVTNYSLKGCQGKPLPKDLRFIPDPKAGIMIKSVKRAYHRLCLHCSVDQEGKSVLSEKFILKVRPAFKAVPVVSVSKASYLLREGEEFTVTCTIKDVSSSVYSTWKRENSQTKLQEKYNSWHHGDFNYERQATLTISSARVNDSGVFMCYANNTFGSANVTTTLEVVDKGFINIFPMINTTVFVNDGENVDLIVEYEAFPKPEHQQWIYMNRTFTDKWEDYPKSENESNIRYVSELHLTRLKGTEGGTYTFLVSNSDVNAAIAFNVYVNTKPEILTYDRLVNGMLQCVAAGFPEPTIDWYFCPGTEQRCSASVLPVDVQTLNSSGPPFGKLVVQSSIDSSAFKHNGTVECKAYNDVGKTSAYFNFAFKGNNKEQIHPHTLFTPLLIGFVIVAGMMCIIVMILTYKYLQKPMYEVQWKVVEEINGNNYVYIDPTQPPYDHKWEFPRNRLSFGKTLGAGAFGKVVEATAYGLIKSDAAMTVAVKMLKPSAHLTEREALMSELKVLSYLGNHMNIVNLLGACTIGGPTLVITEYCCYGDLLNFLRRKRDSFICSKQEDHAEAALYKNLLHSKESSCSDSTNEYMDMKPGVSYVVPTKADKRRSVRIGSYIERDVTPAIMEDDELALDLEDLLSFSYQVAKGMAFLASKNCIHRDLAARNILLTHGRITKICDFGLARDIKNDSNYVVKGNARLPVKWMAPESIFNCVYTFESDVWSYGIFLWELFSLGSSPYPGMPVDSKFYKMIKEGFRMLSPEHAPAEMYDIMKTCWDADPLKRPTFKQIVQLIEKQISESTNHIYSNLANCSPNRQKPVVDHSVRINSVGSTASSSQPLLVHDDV
Sequence of KIT (human), P10721 [V559D/V654A] (P10721 whole entry V559D/V654A, looked up): as the sequence (P10721 whole entry L576P, looked up) above, with V559D, P576L, V654A counted along it

With `CC1=C(C(=O)Nc2cc3cn[nH]c3cc2F)C(c2ccc(C(F)(F)F)cc2)CC(=O)N1` (stereo unspecified), the kinase still bound, per cent of control in assay [1] was 72%; in assay [2], 81%; in assay [3], 90%; in assay [4], 87%; in assay [5], 40%; in [6], 76%. Further, the kinase still bound, per cent of control in [7] was 77%; in [8] it was 93%; in assay [9], 92%; in assay [10], 65%; in assay [11], 15%; in assay [12], 43%.
For `C=CC(=O)Nc1cccc(Nc2nc(N[C@H]3CC[C@H](N(C)C)CC3)nc3c2ncn3C(C)C)c1`, the kinase still bound, per cent of control in assay [1] is 62%; in [2] it was 90%; in assay [3], 82%; in assay [4], 100%; in assay [5], 68%; in assay [6] it was 5.4%. The kinase still bound, per cent of control is 8.4% in assay [7]; 33% in assay [8]; 44% in assay [9]; 100% in assay [10]; 100% in assay [11]; 71% in assay [12].
Consider `CCCS(=O)(=O)Nc1ccc(F)c(C(=O)c2c[nH]c3ncc(-c4ccc(Cl)cc4)cc23)c1F`, for which the kinase still bound, per cent of control came out at 78% in [2]; 71% in [3]; 100% in assay [4]; 100% in assay [7]; 0% in [8]; 26% in assay [9]. Also, the kinase still bound, per cent of control in assay [10] is 78%; in [11], 28%; in [12], 91%.
With `O=C(NOC[C@H](O)CO)c1ccc(F)c(F)c1Nc1ccc(I)cc1F`, the kinase still bound, per cent of control stood at 51% in assay [2]; 70% in assay [3]; 100% in [4]; 77% in assay [5]; 87% in [6]; 78% in [7]. The kinase still bound, per cent of control in assay [8] worked out at 75%; in [9] it was 100%; in assay [10], 100%; in [11] it was 79%; in assay [12], 100%.
As to `N#C/C(=C1/Nc2ccccc2S1)c1ccnc(NCCc2cccnc2)n1`, the kinase still bound, per cent of control in assay [1] stood at 100%; in [6], 83%; in [7], 68%; in assay [8], 33%; in assay [9] it was 100%; in assay [10], 88%. For the same molecule, the kinase still bound, per cent of control in [11] was found to be 100%; in [12], 88%.
Take `CCOc1cc2ncc(C#N)c(Nc3ccc(OCc4ccccn4)c(Cl)c3)c2cc1NC(=O)/C=C/CN(C)C`: the kinase still bound, per cent of control in assay [6] is 94%; in assay [7] it was 100%; in assay [10] it was 86%; in [11], 100%; in [12] it was 91%.
Regarding `CCN(CCO)CCCOc1ccc2c(Nc3cc(CC(=O)Nc4cccc(F)c4)[nH]n3)ncnc2c1`, the kinase still bound, per cent of control in [1] is 28%; in assay [6] it was 4%; in assay [7], 14%; in assay [8] it was 0%; in assay [10], 30%; in assay [11], 0.2%. The kinase still bound, per cent of control in assay [12] amounted to 5.5%.
`N#Cc1c(NC(=O)c2cccc3ccccc23)sc2c1CCCC2`: the kinase still bound, per cent of control worked out at 95% in assay [1]; 84% in assay [6]; 88% in assay [7]; 79% in assay [8]; 100% in [9]; 71% in [10]. Besides, the kinase still bound, per cent of control in assay [11] worked out at 95%; in assay [12], 92%.
On to `CC(=O)c1c(C)c2cnc(Nc3ccc(N4CCNCC4)cn3)nc2n(C2CCCC2)c1=O`, for which the kinase still bound, per cent of control in [1] is 59%; in [3] it was 87%; in assay [4] it was 60%; in assay [5], 39%; in [6], 22%; in [7], 61%. Also, the figures for the kinase still bound, per cent of control in assay [8], in assay [10] and in assay [12] were 24%, 58% and 14%, respectively.
In the case of `Cc1ccc2nc(NCCN)c3ncc(C)n3c2c1`, the kinase still bound, per cent of control in [1] is 100%; in assay [2] it was 100%; in [3], 100%; in assay [4] it was 100%; in [5], 50%; in assay [6], 100%. Further, the kinase still bound, per cent of control in [7], in assay [9], in [10], in assay [11] and in [12] was 100% in each case.
In the case of `O=C(O)c1ccc(Nc2ncc3c(n2)-c2ccc(Cl)cc2C(c2c(F)cccc2F)=NC3)cc1`, the kinase still bound, per cent of control in [3] was determined as 34%; in assay [5], 50%; in [7], 100%; in assay [8], 60%; in [9], 60%; in assay [10] it was 51%. Moreover, the kinase still bound, per cent of control in assay [11] amounted to 54%; in assay [12], 89%.
As to `COc1cc2c(Nc3ccc(NC(=O)c4ccccc4)cc3)ncnc2cc1OCCCN1CCOCC1`, the kinase still bound, per cent of control in [1] was 35%; in [2] it was 26%; in assay [3], 14%; in assay [4], 85%; in assay [5] it was 42%; in assay [6], 13%. Moreover, the kinase still bound, per cent of control in [7] was determined as 34%; in assay [8], 0%; in [9], 5.8%; in assay [11] it was 0.1%; in assay [12] it was 12%.
